Test results reported in US20250163104A1, “MACROCYCLIC IMMUNOMODULATORS” (priority 2021, published 2025).
pIC50: −log10 of the molar value. Where a SMILES comes first, the peptide text is derived from it. Bridges are numbered along the chain shown (N, C = ends). [ ]: non-standard residue; d: D form. The star is where a group is joined. Phe(4-COOH) = N[C@@H](Cc1ccc(C(=O)O)cc1)C(=O)O; Bip = N[C@@H](Cc1ccc(-c2ccccc2)cc1)C(=O)O; 4Pal = N[C@@H](Cc1ccncc1)C(=O)O; Carboxymethyl = O=C(O)C*; Orn = NCCC[C@H](N)C(=O)O; Dab = NCC[C@H](N)C(=O)O; Dap = NC[C@H](N)C(=O)O

target: T1, human PD-1 / PD-L1-Ig binding on Jurkat cell line over-expressing human PD-1 (Jurkat-PD-1) (Homo sapiens, UniProt Q15116); experiment: Jurkat-PD-1 Cell Binding High-Content Screening Assay (CBA); type: cell-based; settings: Jurkat-PD-1 cells, PE-labeled PD-L1-Ig 20 nM final; read-out: Jurkat HPD1_PDL1 IC50
T1 construct: expressed in transfected cells; host or cells: Jurkat
In short: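 Read-out: high-content imaging of PE-tagged PD-L1-Ig bound to Jurkat cells overexpressing human PD-1, after fixation with 4% paraformaldehyde and Hoechst 33342 nuclear staining. Ligand was used at 20 nM final for 1 hour, after a 2 h compound exposure at 37° C in serum-containing DMEM.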

T1 sequence (Q15116 25-288): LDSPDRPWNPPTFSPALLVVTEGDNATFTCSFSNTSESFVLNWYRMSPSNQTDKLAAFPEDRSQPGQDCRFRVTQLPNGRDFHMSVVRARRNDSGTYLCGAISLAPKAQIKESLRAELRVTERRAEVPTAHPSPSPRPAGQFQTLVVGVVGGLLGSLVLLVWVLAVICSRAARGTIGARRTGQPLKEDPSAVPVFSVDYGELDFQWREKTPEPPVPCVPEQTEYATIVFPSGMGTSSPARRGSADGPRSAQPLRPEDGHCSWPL

Structure (SMILES) | pIC50
CC[C@H](C)[C@@H]1NC(=O)[C@H](Cc2ccc(-c3ccccc3)cc2)NC(=O)[C@H](C(C)C)NC(=O)[C@H](Cc2c[nH]c3ccccc23)NC(=O)[C@H](CC(=O)O)NC(=O)[C@H](Cc2ccc(C(=O)O)cc2)NC(=O)[C@H](CN)NC(=O)CSC[C@@H](C(=O)N[C@@H](C)C(N)=O)NC(=O)[C@H]([C@@H](C)O)NC(=O)[C@H](C(C)C)NC(=O)[C@H](CC(C)C)NC(=O)[C@H](CCN)NC(=O)[C@@H](CC(C)C)NC(=O)[C@H](CCCN)NC1=O [Compound 1052] ({CH2CO}-[Dap][Phe(4-COOH)]DWV[Bip]I[Orn][dL][Dab]LVTCA-NH2; thioether N-14) | 7.93
CC[C@H](C)[C@@H]1NC(=O)[C@H](Cc2ccc(-c3ccccc3)cc2)NC(=O)[C@H](C(C)C)NC(=O)[C@H](Cc2c[nH]c3ccccc23)NC(=O)[C@H](CC(=O)O)NC(=O)[C@H](Cc2ccc(O)cc2)NC(=O)[C@H](Cc2ccncc2)NC(=O)CSC[C@@H](C(=O)N[C@@H](C)C(N)=O)NC(=O)[C@H]([C@@H](C)O)NC(=O)[C@H](C(C)C)NC(=O)[C@H](CC(C)C)NC(=O)[C@H](CCN)NC(=O)[C@@H](CC(C)C)NC(=O)[C@H](CCCN)NC1=O [Compound 1053] ({CH2CO}-[4Pal]YDWV[Bip]I[Orn][dL][Dab]LVTCA-NH2; thioether N-14) | 7.86
CC[C@H](C)[C@@H]1NC(=O)[C@H](Cc2ccc(-c3ccccc3)cc2)NC(=O)[C@H](C(C)C)NC(=O)[C@H](Cc2c[nH]c3ccccc23)NC(=O)[C@H](CC(=O)O)NC(=O)[C@H](Cc2ccc(OCC(=O)O)cc2)NC(=O)[C@H](CN)NC(=O)CSC[C@@H](C(=O)N[C@@H](C)C(N)=O)NC(=O)[C@H]([C@@H](C)O)NC(=O)[C@H](C(C)C)NC(=O)[C@H](CC(C)C)NC(=O)[C@H](CCN)NC(=O)[C@@H](CC(C)C)NC(=O)[C@H](CCCN)NC1=O [Compound 1054] ({CH2CO}-[Dap]Y(Carboxymethyl)DWV[Bip]I[Orn][dL][Dab]LVTCA-NH2; thioether N-14) | 8.05
CC[C@H](C)[C@@H]1NC(=O)[C@H](Cc2ccc(-c3ccccc3)cc2)NC(=O)[C@H](C(C)C)NC(=O)[C@H](Cc2c[nH]c3ccccc23)NC(=O)[C@H](CC(=O)O)NC(=O)[C@H](Cc2ccc(C(=O)O)cc2)NC(=O)[C@H](Cc2ccncc2)NC(=O)CSC[C@@H](C(=O)N[C@@H](C)C(N)=O)NC(=O)[C@H]([C@@H](C)O)NC(=O)[C@H](C(C)C)NC(=O)[C@H](CC(C)C)NC(=O)[C@H](CCN)NC(=O)[C@@H](CC(C)C)NC(=O)[C@H](CCCN)NC1=O [Compound 1055] ({CH2CO}-[4Pal][Phe(4-COOH)]DWV[Bip]I[Orn][dL][Dab]LVTCA-NH2; thioether N-14) | 8.24
CC[C@H](C)[C@@H]1NC(=O)[C@H](Cc2ccc(-c3ccccc3)cc2)NC(=O)[C@H](C(C)C)NC(=O)[C@H](Cc2c[nH]c3ccccc23)NC(=O)[C@H](CC(=O)O)NC(=O)[C@H](Cc2ccc(O)cc2)NC(=O)[C@H](CN)NC(=O)CSC[C@@H](C(=O)N[C@@H](C)C(N)=O)NC(=O)[C@H]([C@@H](C)O)NC(=O)[C@H](C(C)C)NC(=O)[C@H](CC(C)C)NC(=O)[C@H](CCN)NC(=O)[C@@H](CC(C)C)NC(=O)[C@H](CCCN)NC1=O [Compound 1056] ({CH2CO}-[Dap]YDWV[Bip]I[Orn][dL][Dab]LVTCA-NH2; thioether N-14) | 8.07
CC[C@H](C)[C@@H]1NC(=O)[C@H](Cc2ccc(-c3ccccc3)cc2)NC(=O)[C@H](C(C)C)NC(=O)[C@H](Cc2c[nH]c3ccccc23)NC(=O)[C@H](CC(=O)O)NC(=O)[C@H](Cc2ccc(OCC(=O)O)cc2)NC(=O)[C@H](Cc2ccncc2)NC(=O)CSC[C@@H](C(=O)N[C@@H](C)C(N)=O)NC(=O)[C@H]([C@@H](C)O)NC(=O)[C@H](C(C)C)NC(=O)[C@H](CC(C)C)NC(=O)[C@H](CCN)NC(=O)[C@@H](CC(C)C)NC(=O)[C@H](CCCN)NC1=O [Compound 1057] ({CH2CO}-[4Pal]Y(Carboxymethyl)DWV[Bip]I[Orn][dL][Dab]LVTCA-NH2; thioether N-14) | 6.89
CC(C)C[C@@H]1NC(=O)[C@H](Cc2c[nH]c3ccccc23)NC(=O)[C@H](CC(=O)O)NC(=O)[C@H](Cc2ccc(O)cc2)NC(=O)[C@H](Cc2ccccc2)NC(=O)CSC[C@@H](C(=O)N[C@@H](C)C(N)=O)NC(=O)[C@H]([C@@H](C)O)NC(=O)[C@H](C(C)C)NC(=O)[C@H](CC(C)C)NC(=O)[C@H](CC(N)=O)NC(=O)[C@@H](CC(C)C)NC(=O)[C@H](CCN)NC(=O)[C@H](C(C)C)NC(=O)[C@H](Cc2ccc(-c3ccccc3)cc2)NC1=O [Compound 1058] ({CH2CO}-FYDWL[Bip]V[Dab][dL]NLVTCA-NH2; thioether N-14) | 7.74
CC(C)C[C@@H]1NC(=O)[C@H](Cc2c[nH]c3ccccc23)NC(=O)[C@H](CC(=O)O)NC(=O)[C@H](Cc2ccc(O)cc2)NC(=O)[C@H](Cc2ccccc2)NC(=O)CSC[C@@H](C(=O)NCC(N)=O)NC(=O)[C@H](CO)NC(=O)[C@H](C(C)C)NC(=O)[C@H](CC(C)C)NC(=O)[C@H](CC(N)=O)NC(=O)[C@@H](CC(C)C)NC(=O)[C@H](CCN)NC(=O)[C@H](C(C)C)NC(=O)[C@H](Cc2ccc(-c3ccccc3)cc2)NC1=O [Compound 1059] ({CH2CO}-FYDWL[Bip]V[Dab][dL]NLVSCG-NH2; thioether N-14) | 7.55
CC(C)C[C@@H]1NC(=O)[C@H](Cc2c[nH]c3ccccc23)NC(=O)[C@H](CC(=O)O)NC(=O)[C@H](Cc2ccc(O)cc2)NC(=O)[C@H](Cc2ccccc2)NC(=O)CSC[C@@H](C(=O)NCC(N)=O)NC(=O)[C@H]([C@@H](C)O)NC(=O)[C@H](C(C)C)NC(=O)[C@H](CC(C)C)NC(=O)[C@H](CCN)NC(=O)[C@@H](CC(C)C)NC(=O)[C@H](CCN)NC(=O)[C@H](C(C)C)NC(=O)[C@H](Cc2ccc(-c3ccccc3)cc2)NC1=O [Compound 1060] ({CH2CO}-FYDWL[Bip]V[Dab][dL][Dab]LVTCG-NH2; thioether N-14) | 7.79
CC(C)C[C@@H]1NC(=O)[C@H](Cc2c[nH]c3ccccc23)NC(=O)[C@H](CC(=O)O)NC(=O)[C@H](Cc2ccc(O)cc2)NC(=O)[C@H](Cc2ccccc2)NC(=O)CSC[C@@H](C(=O)N[C@@H](C)C(N)=O)NC(=O)[C@H](CO)NC(=O)[C@H](C(C)C)NC(=O)[C@H](CC(C)C)NC(=O)[C@H](CCN)NC(=O)[C@@H](CC(C)C)NC(=O)[C@H](CCN)NC(=O)[C@H](C(C)C)NC(=O)[C@H](Cc2ccc(-c3ccccc3)cc2)NC1=O [Compound 1061] ({CH2CO}-FYDWL[Bip]V[Dab][dL][Dab]LVSCA-NH2; thioether N-14) | 8.06
CC(C)C[C@@H]1NC(=O)[C@H](Cc2c[nH]c3ccccc23)NC(=O)[C@H](CC(=O)O)NC(=O)[C@H](Cc2ccc(O)cc2)NC(=O)[C@H](Cc2ccccc2)NC(=O)CSC[C@@H](C(=O)N[C@@H](C)C(N)=O)NC(=O)[C@H]([C@@H](C)O)NC(=O)[C@H](C(C)C)NC(=O)[C@H](CC(C)C)NC(=O)[C@H](CCN)NC(=O)[C@@H](CC(C)C)NC(=O)[C@H](CCN)NC(=O)[C@H](C(C)C)NC(=O)[C@H](Cc2ccc(-c3ccccc3)cc2)NC1=O [Compound 1062] ({CH2CO}-FYDWL[Bip]V[Dab][dL][Dab]LVTCA-NH2; thioether N-14) | 7.91
CC(C)C[C@@H]1NC(=O)[C@H](Cc2c[nH]c3ccccc23)NC(=O)[C@H](CC(=O)O)NC(=O)[C@H](Cc2ccc(O)cc2)NC(=O)[C@H](Cc2ccccc2)NC(=O)CSC[C@@H](C(=O)NCC(N)=O)NC(=O)[C@H](CO)NC(=O)[C@H](C(C)C)NC(=O)[C@H](CC(C)C)NC(=O)[C@H](CCN)NC(=O)[C@@H](CC(C)C)NC(=O)[C@H](CCN)NC(=O)[C@H](C(C)C)NC(=O)[C@H](Cc2ccc(-c3ccccc3)cc2)NC1=O [Compound 1063] ({CH2CO}-FYDWL[Bip]V[Dab][dL][Dab]LVSCG-NH2; thioether N-14) | 7.70
CC(C)C[C@@H]1NC(=O)[C@H](Cc2c[nH]c3ccccc23)NC(=O)[C@H](CC(=O)O)NC(=O)[C@H](Cc2ccc(O)cc2)NC(=O)[C@H](Cc2ccccc2)NC(=O)CSC[C@@H](C(=O)NCC(N)=O)NC(=O)[C@H]([C@@H](C)O)NC(=O)[C@H](C(C)C)NC(=O)[C@H](CC(C)C)NC(=O)[C@H](CC(N)=O)NC(=O)[C@@H](CC(C)C)NC(=O)[C@H](CCCN)NC(=O)[C@H](C(C)C)NC(=O)[C@H](Cc2ccc(-c3ccccc3)cc2)NC1=O [Compound 1064] ({CH2CO}-FYDWL[Bip]V[Orn][dL]NLVTCG-NH2; thioether N-14) | 7.29
CC(C)C[C@@H]1NC(=O)[C@H](Cc2c[nH]c3ccccc23)NC(=O)[C@H](CC(=O)O)NC(=O)[C@H](Cc2ccc(O)cc2)NC(=O)[C@H](Cc2ccccc2)NC(=O)CSC[C@@H](C(=O)N[C@@H](C)C(N)=O)NC(=O)[C@H](CO)NC(=O)[C@H](C(C)C)NC(=O)[C@H](CC(C)C)NC(=O)[C@H](CC(N)=O)NC(=O)[C@@H](CC(C)C)NC(=O)[C@H](CCCN)NC(=O)[C@H](C(C)C)NC(=O)[C@H](Cc2ccc(-c3ccccc3)cc2)NC1=O [Compound 1065] ({CH2CO}-FYDWL[Bip]V[Orn][dL]NLVSCA-NH2; thioether N-14) | 7.89
CC(C)C[C@@H]1NC(=O)[C@H](Cc2c[nH]c3ccccc23)NC(=O)[C@H](CC(=O)O)NC(=O)[C@H](Cc2ccc(O)cc2)NC(=O)[C@H](Cc2ccccc2)NC(=O)CSC[C@@H](C(=O)N[C@@H](C)C(N)=O)NC(=O)[C@H]([C@@H](C)O)NC(=O)[C@H](C(C)C)NC(=O)[C@H](CC(C)C)NC(=O)[C@H](CC(N)=O)NC(=O)[C@@H](CC(C)C)NC(=O)[C@H](CCCN)NC(=O)[C@H](C(C)C)NC(=O)[C@H](Cc2ccc(-c3ccccc3)cc2)NC1=O [Compound 1066] ({CH2CO}-FYDWL[Bip]V[Orn][dL]NLVTCA-NH2; thioether N-14) | 7.37
CC(C)C[C@@H]1NC(=O)[C@H](Cc2c[nH]c3ccccc23)NC(=O)[C@H](CC(=O)O)NC(=O)[C@H](Cc2ccc(O)cc2)NC(=O)[C@H](Cc2ccccc2)NC(=O)CSC[C@@H](C(=O)NCC(N)=O)NC(=O)[C@H](CO)NC(=O)[C@H](C(C)C)NC(=O)[C@H](CC(C)C)NC(=O)[C@H](CC(N)=O)NC(=O)[C@@H](CC(C)C)NC(=O)[C@H](CCCN)NC(=O)[C@H](C(C)C)NC(=O)[C@H](Cc2ccc(-c3ccccc3)cc2)NC1=O [Compound 1067] ({CH2CO}-FYDWL[Bip]V[Orn][dL]NLVSCG-NH2; thioether N-14) | 7.65
